The values below come from US5449612A, “Process for identifying candida by means of chromogenic substances” (Serbio, priority 1990, dated 1995).

Experiment [1] relates to C. zeylanoides. Put plainly: Diagnosis from isolated colonies on gelose 2/5. The class given is cell-based, Candida zeylanoides. Particulars: Table VI, 1 strain, gelose 2.
Experiment [2] relates to C. parapsilosis. Put plainly: Diagnosis from non-isolated colonies on gelose 2/5. The class given is cell-based, Candida parapsilosis.
Experiment [3] deals with C. krusei. Briefly: Diagnosis from isolated colonies on gelose 2/5. The experiment is classed as cell-based, Candida krusei. Particulars: isolated colonies, gelose 2. On the procedure: (§1) According to the afore-mentioned best mode of carrying out the invention, a culture medium containing the following ingredients is prepared; it is called gelose 2 below and is buffered to pH 6.0.
(§2) According to the afore-mentioned best mode of carrying out the invention, a culture medium containing the following ingredients is prepared; it is called gelose 5 below and is buffered to pH 6.0.
Several isolated strains of C. albicans, C. tropicalis, C. krusei, C. guillermondii, C. pseudotropicalis, C. parapsilosis, C. zeylanoides, T. glabrata and Trichosporon cutaneum were inoculated and incubated on the media of Examples 1 to 5. […] Part of the results obtained has been collated in Table VI below, where the TTC column relates to results of tests undertaken separately on a standard gelose medium containing TTC.
Several isolated strains of C. albicans, C. tropicalis, C. krusei, C. guillermondii and T. glabrata were inoculated and incubated on the media of Example 2 [containing either the substrate N-Ac-β-D-galactosaminide-PNP of the prior art, or the substrates H-L-PropNA.AcOH (specific for C. albicans), EM-L-Phg-L-ArgpNA.AcOH (specific for T. glabrata) and H-Gly-L-Pro-L-Arg-pNA.2AcOH (specific for C. krusei)]and of Example 5 (containing the substrate H-L-Pro-pNA.AcOH).

The next experiment deals with Cr. neoformans. Put plainly: Diagnosis from non-isolated colonies on gelose 2/5. The class given is cell-based, Cryptococcus neoformans. Particulars: Table VIII, 1 strain, gelose 2.
The subject of experiment [4] is T. glabrata. Briefly: Diagnosis from non-isolated colonies on gelose 2/5. The experiment is classed as cell-based, Torulopsis glabrata. Particulars: 8 strains.
Experiment [5] has as its system C. albicans. Briefly: Diagnosis from non-isolated colonies on gelose 2/5. The class given is cell-based, Candida albicans.
Experiment [6] relates to Tr. cutaneum. Briefly: Diagnosis from isolated colonies on gelose 2/5. The experiment is classed as cell-based, Trichosporon cutaneum. Particulars: Table VI, 1 strain, gelose 2.
The subject of a further experiment is C. cerevisiae. Put plainly: Diagnosis from non-isolated colonies on gelose 5. The class given is cell-based. Particulars: Table IX; non-isolated colonies, 1 strain; gelose 5, cycloheximide. On the procedure: as §2
(§3) A mixture of several non-isolated strains of C. albicans, C. tropicalis, C. krusei, C. guillermondii, C. pseudotropicalis, C. parapsilosis, C. zeylanoides, C. ciferii, C. cerevisiae, Torulopsis glabrata and Trichosporon cutaneum was inoculated and incubated on the culture media according to Example 5, containing the substrate N-Ac-β-D-galactosaminide-PNP of the prior art or the substrate H-Pro-pNA.AcOH according to the invention.

The subject of experiment [7] is C. pseudotropicalis. Put plainly: Diagnosis from isolated colonies on gelose 2/5. The experiment is classed as cell-based, Candida pseudotropicalis. Particulars: Table VI, 2 strains, gelose 2.
The test system of experiment [8] is C. zeylanoides. Briefly: Diagnosis from non-isolated colonies on gelose 5. The class given is cell-based, Candida zeylanoides. Particulars: Table IX, 1 strain, gelose 5, cycloheximide.
Experiment [9] has as its system C. tropicalis. Put plainly: Diagnosis from isolated colonies on gelose 2/5. Particulars: gelose 2; for Reading at t = 24 h: isolated colonies. The experiment is classed as cell-based, Candida tropicalis.
Experiment [10] has as its system C. guillermondii. Briefly: Diagnosis from non-isolated colonies on gelose 2/5. The experiment is classed as cell-based, Candida guillermondii. Particulars: 1 strain.
Experiment [11] has as its system C. albicans. Put plainly: Diagnosis from isolated colonies on gelose 2/5. The class given is cell-based, Candida albicans. Particulars: isolated colonies, gelose 2.
A further experiment has as its system C. ciferii. Put plainly: Diagnosis from non-isolated colonies on gelose 5. The class given is cell-based. Particulars: Table IX, 1 strain, gelose 5, cycloheximide.
In experiment [12] the test system is Tr. cutaneum. Put plainly: Diagnosis from non-isolated colonies on gelose 2/5. The experiment is classed as cell-based, Trichosporon cutaneum. Particulars: 2 strains.
Experiment [13] concerns C. guillermondii. Put plainly: Diagnosis from isolated colonies on gelose 2/5. The class given is cell-based, Candida guillermondii. Particulars: Table VI, 2 strains, gelose 2.
The test system of experiment [14] is T. glabrata. Briefly: Diagnosis from isolated colonies on gelose 2/5. Particulars: isolated colonies, gelose 2. The class given is cell-based, Torulopsis glabrata.
Experiment [15] deals with C. parapsilosis. Briefly: Diagnosis from isolated colonies on gelose 2/5. The experiment is classed as cell-based, Candida parapsilosis. Particulars: Table VI, 5 strains, gelose 2.
Experiment [16] relates to C. pseudotropicalis. Briefly: Diagnosis from non-isolated colonies on gelose 2/5. The experiment is classed as cell-based, Candida pseudotropicalis.
The test system of experiment [17] is C. tropicalis. Briefly: Diagnosis from non-isolated colonies on gelose 2/5. The experiment is classed as cell-based, Candida tropicalis. Particulars: 1 strain.
For experiment [18], the system named is C. krusei. Briefly: Diagnosis from non-isolated colonies on gelose 2/5. The class given is cell-based, Candida krusei. Particulars: non-isolated colonies. On the procedure:
as §1, §2
A mixture of several non-isolated strains of C. albicans, C. tropicalis, C. krusei, C. guillermondii, C. pseudotropicalis, C. parapsilosis, Cryptococcus neoformaas, Torulopsis glabrata and Trichosporon cutaneum was inoculated and incubated on the culture media according to Examples 1 to 5, containing the substrate N-Ac-β-D-galactosaminide-PNP of the prior art or the substrate H-Pro-pNA.AcOH according to the invention. The results, which were obtained particularly with geloses 2 and 5, are collated in Table VIII below, where the TTC column relates to results of tests undertaken separately on a standard gelose medium containing TTC.
as §3

For the next experiment, the system named is Candida tropicalis. Briefly: Tests on substrates against Candida tropicalis, colour reading on buffered gelose. Particulars: Table III; medium pH 6.0. The class given is cell-based.
Experiment [19] has as its system T. glabrata. Put plainly: Tests on substrates against T. glabrata, colour reading on buffered gelose. Further: key: -: none; +: weak; ++: moderate; +++: intense; ++++: very intense. Particulars: Table III; medium pH 6.0. The experiment is classed as cell-based, Torulopsis glabrata.
Where [20] appears, read: Table IX, 1 strain, gelose 5, cycloheximide.
The mark [21] stands for this setting: Table IX, gelose 5, cycloheximide.

For the molecule `CC(=O)N[C@H]1[C@H](Oc2ccc([N+](=O)[O-])cc2)O[C@H](CO)[C@H](O)[C@@H]1O` [NAc-D-galactosaminide-PNP, N-Ac-β-D-galactosaminide-PNP, reference compound], the “Reading at t = 24 h” value is “-” in the experiment with C. zeylanoides [1]; “-” in the experiment on C. parapsilosis [2] (setting [20]); “-” in the experiment on C. parapsilosis [2] (Table VIII, 2 strains, gelose 2); “-” with C. krusei [3] (Table VI, 4 strains); “-” in the experiment on C. krusei [3] (Table VII, 6 strains); “-” in the experiment with Cr. neoformans. Also, the “Reading at t = 24 h” value was “-” with T. glabrata [4] (setting [21]); “-” in the experiment with T. glabrata [4] (Table VIII, gelose 2); “++++ and negative for 2 out of 89 strains” in the experiment on C. albicans [5] (Table IX, 89 strains, gelose 5, cycloheximide); “++++” with C. albicans [5] (Table VIII, 13 strains, gelose 2); “++” in the experiment on Tr. cutaneum [6]; “-” in the experiment with C. cerevisiae. Moreover, the “Reading at t = 24 h” value in the experiment on C. pseudotropicalis [7] was “-”; with C. zeylanoides [8], “-”; in the experiment with C. tropicalis [9] (Table VI, 4 strains), 3 gave the result - and 1 the result ++; in the experiment with C. tropicalis [9] (Table VII, 9 strains), “positive (++) for only 1 of the 9 strains tested and negative”; with C. guillermondii [10] (setting [21]), “-”; in the experiment on C. guillermondii [10] (Table VIII, gelose 2), “-”. Besides, the “Reading at t = 24 h” value in the experiment on C. albicans [11] (Table VI, 10 strains) was “++++”; in the experiment with C. albicans [11] (Table VII, 6 strains) it was “+++”; in the experiment on C. ciferii, “-”; with Tr. cutaneum [12] (setting [21]) it was “-”; with Tr. cutaneum [12] (Table VIII, gelose 2), “- result for 1 strain and +++ result for the other strain”; with C. guillermondii [13], “-”. The “Reading at t = 24 h” value is recorded as “-” with T. glabrata [14] (Table VI, 4 strains); “-” in the experiment on T. glabrata [14] (Table VII, 9 strains); “-” in the experiment on C. parapsilosis [15]; “-” in the experiment with C. pseudotropicalis [16] (Table IX, 2 strains, gelose 5, cycloheximide); “-” with C. pseudotropicalis [16] (Table VIII, 1 strain, gelose 2); “-” with C. tropicalis [17] (setting [21]). Further, the “Reading at t = 24 h” value in the experiment on C. tropicalis [17] (Table VIII, gelose 2) is given as “-”; with C. krusei [18] (setting [20]), “-”; with C. krusei [18] (Table VIII, 6 strains, gelose 2) it was “-”.
As to EM-L-Phg-L-Arg-pNA.AcOH, the “C. TROPICALIS reading at 24 h” value with Candida tropicalis is listed as “+++”. The “Reading at t = 24 h” value in the experiment with C. krusei [3] (Table VII, 6 strains) was “-”; with C. tropicalis [9] (Table VII, 9 strains), “++”; in the experiment on C. albicans [11] (Table VII, 6 strains) it was “-”; in the experiment on T. glabrata [14] (Table VII, 9 strains) it was “+++”. Moreover, the “T. GLABRATA reading at 24 h” value in the experiment with T. glabrata [19] is reported as “++++”. The “hydrolysis by the strains of C. tropicalis” value in the experiment on C. tropicalis [9] (Example 7, isolated strains) is “hydrolyzed”.
